{
  "source": "patent US20260125428A1",
  "about": "“SYNTHETIC TRIPLEX PEPTIDE NUCLEIC ACID-BASED INHIBITORS FOR CANCER THERAPY” (University of Connecticut, priority 2022, published 2026)",
  "key": {"U2932 cells [1]": {"tested_on": "U2932 cells", "test": "Cell viability (trypan blue) of U2932 cells", "format": "cell-based", "details": "24 h, different doses", "method": "(§1) FIGS. 4A-F show effect of cellular uptake of indicated PNAs. (4A) Expression levels of C-Myc oncogene in U2932 (DLBCL), Raji and Daudi cells (Burkitt's lymphoma) in comparison to the peripheral blood mononuclear cells (PBMC). (4B) Cell viability of U2932 cells after 24 h treatment with indicated PNAs at different doses. (4C) Cell viability of Raji cells after 24 h treatment with indicated PNAs at different doses. (4D) Gene expression levels of C-Myc oncogene and its downstream targets including MCL1 and EZH2 in U2932 cells after 24 h of treatment with γPNA1-NLS, γPNA2-NLS, and ScrγPNA4-NLS at 8 μM. (4E) Gene expression levels of C-Myc oncogene and its downstream targets including BCL2 and EZH2 in Raji cells after 24 h of treatment with γPNA1-NLS, γPNA2-NLS, and ScrγPNA4-NLS at 8 μM. (4F) Gene expression levels of C-Myc in U2932 cells after 24 h treatment with γPNA2-NLS and ScrγPNA4-NLS at indicated doses."}, "C-Myc oncogene [2]": {"tested_on": "C-Myc oncogene", "test": "Gene expression (RT-PCR) in U2932 cells after combination treatment", "format": "cell-based, human", "method": "(§2) Gene expression: The levels of mRNA were measured in different cell lines using real time-polymerase chain reaction (RT-PCR). Both untreated (PBMC, U2932, Raji, Daudi) and PNA treated lymphoma cells were collected at the end of treatment. Total RNA was extracted using Qiagen RNeasy® kit (USA) and concentration was measured by Nanodrop™. cDNA was synthesized using high capacity cDNA reverse transcription kit (Applied Biosystem, USA) following the recommended cycling conditions. Taqman® gene expression assay for C-Myc, EZH2, BCL2, MCL1 and GAPDH were used to amplify the respective mRNAs using the specified cycling conditions in the CFX Real-Time PCR detection system. GAPDH was used as the reference gene and fold change in mRNA expression was obtained by normalizing against the untreated cells or cells treated with HDAC inhibitors."}, "U2932 cells [3]": {"tested_on": "U2932 cells", "test": "Viability of U2932 cells, combination of PNAs with HDAC inhibitors and other drugs", "method": "FIGS. 9A-D show cell viability after treatment with indicated PNAs. (9A) The viability of U2932 cells after treatment with γPNA1-NLS (8 μM), romidepsin (10 nM) and combination of γPNA1-NLS with romidepsin over 96 hours. (9B) The viability of U2932 cells after treatment with γPNA2-NLS (8 μM), romidepsin (10 nM) and combination of γPNA2-NLS with romidepsin over 96 hours. (9C) Fold change in C-Myc levels after combination of γPNA1-NLS and γPNA2-NLS with romidepsin in comparison to only romidepsin treatment. (9D) Fold change in BCL2 levels after combination of γPNA1-NLS and γPNA2-NLS with romidepsin in comparison to only romidepsin treatment.\nFIGS. 10A-F show the viability of U2932 cells after indicated treatment. (10A) Viability of U2932 cells after treatment with γPNA2-NLS […], vorinostat (2.5 μM) and combination of γPNA2-NLS with vorinostat over 96 hours. (10B) The viability of U2932 cells after treatment with γPNA2-NLS (8 μM), valproic acid (2 mM) and combination of γPNA2-NLS with valproic acid over 96 hours. […] (10E) The viability of U2932 cells after treatment with CHOP (cyclophosphamide, vincristine, doxorubicin, prednisone) and combination of γPNA2-NLS with CHOP at different doses.\nCell viability: U2932 and Raji cells were seeded in 96 well plates at 20,000 cells/well. PNAs were added to the media at different concentrations (1, 2, 4, and 8 μM). […] The cell viability was then measured via trypan blue staining on day 1, 2, and 4."}, "U2932 derived xenografts": {"tested_on": "U2932 derived xenografts", "test": "Tumor growth and survival study in U2932 derived xenograft mice", "format": "in vivo", "details": "5 mg/kg systemic on day 1, 4, 7, and 10; for survival of the mice: saline 21 days", "method": "FIGS. 7A-C show survival data of mice after systemic administration of indicated PNAs. (7A) Graph representing the tumor volume of U2932 xenografts after systemic treatment with indicated PNAs (n≥4 mice per group). PNAs were administered systemically on day 1, 4, 7, and 10 (n≥4 mice per group). (7B) The survival of U2932 derived xenograft mice after treatment with γPNA2-NLS, γPNA3, and ScrγPNA4-NLS at 5 mg/kg dose in comparison to the control (saline) mice. (7C) Complete blood count analysis of mice from different groups at the end of the study. RBC: red blood cells; WBC: white blood cells; HGB: hemoglobin; PLT: platelets; HCT: hematocrit; MCH: […]. (D) Blood chemistry analysis of mice from different groups at the end of the study. ALT: alanine transaminase; AST: aspartate transaminase; BUN: blood urea nitrogen; LDH: Lactate dehydrogenase. Results are presented as mean±SEM (n≥4).\nIn vivo studies in xenograft mice model: U2932 derived xenografts were generated by implanting 10 million cells subcutaneously on the lower right flank of the female NSG mice (NOD.Cg-Prkdc^scidIl2rg^tm1Wj1/SzJ, #005557, Jackson Laboratories, USA) of 5-6 weeks. The mice were maintained in the animal care facility at the University of Connecticut following the required Institutional Animal Care and Use Committee guidelines (IACUC). Mice developed palpable tumors after 3-4 weeks of implantation. Tumor dimensions including length (l), breadth (b), and height (h) were measured using a caliper and volume was calculated using the formula for ellipsoid (0.5236×lbh).\nSurvival study: Mice bearing tumors about 100-150 mm^3 were divided into 4 groups. Mice were treated with either γPNA2-NLS, γPNA3, Scr-γPNA4-NLS, or saline. PNAs were administered at 5 mg/kg dose on day 1, 4, 7, and 10. The change in tumor volume was measured every day. Mice were euthanized when the tumor volume reached 2000 mm^3. Blood was collected via cardiac punter in 1.5 ml tubes containing 0.5 M EDTA. Organs including tumor, liver, kidney, spleen, heart and lung were collected. Tumor fraction and all organs were kept in 10% formalin and submitted for histology. The complete blood count analysis was performed on the collected blood samples using Sysmex CBC analyzer. Plasma was separated from the blood samples and submitted to Antech diagnostic for blood chemistry analysis to quantify the levels of alanine transaminase, lactate dehydrogenase, aspartate transaminase and blood urea nitrogen."}, "Raji cells": {"tested_on": "Raji cells", "test": "Cell viability (trypan blue) of Raji cells", "format": "cell-based", "details": "24 h, different doses", "method": "as §1"}, "C-Myc oncogene [4]": {"tested_on": "C-Myc oncogene", "test": "Gene expression (RT-PCR) of C-Myc and downstream targets in Raji cells", "format": "cell-based, human", "details": "24 h, 8 μM", "method": "as §1, §2"}, "C-Myc oncogene [5]": {"tested_on": "C-Myc oncogene", "test": "Gene expression (RT-PCR) of C-Myc and downstream targets in U2932 cells", "format": "cell-based, human", "details": "24 h", "method": "as §1, §2"}},
  "data": [
    {"substance": "JJJTJJJT-OOO-TCCCTCCCTCCGTTCTTTTTCCC-K-OOO-VKRKKKP (gamma PNA tail clamp; linkers; NLS peptide; gammaPNA to target C-Myc Exon 1; misc_feature 1 JJJTJJJT-linker- is covalently linked to the backbone, wherein J is pseudoisocytosine and the linker is 11-Amino-3,6,9-Trioxaundecanoic Acid (DCHA), represented as -OOO-; misc_feature 23 -K-linker-SEQ ID NO: 5 is covalently linked to the backbone, wherein the linker is 11-Amino-3,6,9-Trioxaundecanoic Acid (DCHA), represented as -OOO-; modified_base 1) [γPNA2-NLS]", "values": [
      {"measurement": "viability of U2932 cells", "setting": "U2932 cells [1]", "value": "significant decrease in the viability"},
      {"measurement": "knockdown of c-myc, combination with valproic acid", "setting": "C-Myc oncogene [2]; 96 h, valproic acid 2 mM", "value": "higher knockdown of c-myc"},
      {"measurement": "knockdown of c-myc, combination with vorinostat", "setting": "C-Myc oncogene [2]; 96 h, vorinostat 2.5 uM, PNA 8 μM", "value": "higher knockdown of c-myc"},
      {"measurement": "BCL-2 levels, combination with romidepsin in comparison to only romidepsin", "setting": "C-Myc oncogene [2]; day 4", "value": "reduced levels"},
      {"measurement": "decrease in C-Myc levels, combination with romidepsin compared with only romidepsin", "setting": "C-Myc oncogene [2]; day 4, PNA 8 uM, romidepsin 10 nM", "value": "> 90", "unit": "%"},
      {"measurement": "viability, combination with venetoclax", "setting": "U2932 cells [3]; U2932 cells, over time", "value": "significant reduction in viability"},
      {"measurement": "combination effect with romidepsin on viability (in words)", "setting": "U2932 cells [3]; U2932 cells, romidepsin 10 nM, PNA 8 uM", "value": "synergistic activity"},
      {"measurement": "viability, combination with CHOP", "setting": "U2932 cells [3]; U2932 cells, trypan blue, 24 h and 48 h", "value": "significant reduction in viability"},
      {"measurement": "viability, combination with valproic acid in comparison to the individual treatments", "setting": "U2932 cells [3]; U2932 cells, valproic acid 2 mM, PNA 8 μM, over 96 hours", "value": "significant decrease in viability"},
      {"measurement": "combination effect with vorinostat on viability", "setting": "U2932 cells [3]; U2932 cells, vorinostat 2.5 μM, over 96 hours", "value": "synergistic activity"},
      {"measurement": "decrease in U2932 cell viability, combination with romidepsin", "setting": "U2932 cells [3]; romidepsin 10 nM pretreatment 24 h, PNA 8 uM, day 4", "value": "approximately 80%"},
      {"measurement": "efficacy on tumor growth in comparison to γPNA3", "setting": "U2932 derived xenografts", "value": "superior efficacy"},
      {"measurement": "tumor growth in comparison to the control groups", "setting": "U2932 derived xenografts", "value": "significantly reduced tumor growth"},
      {"measurement": "survival of the mice", "setting": "U2932 derived xenografts", "value": 29, "unit": "days"},
      {"measurement": "viability of Raji cells", "setting": "Raji cells", "value": "significant decrease in the viability"},
      {"measurement": "decrease in the levels of C-Myc", "setting": "C-Myc oncogene [4]", "value": "> 50", "unit": "%"},
      {"measurement": "levels of downstream targets BCL2 and EZH2", "setting": "C-Myc oncogene [4]", "value": "downregulation of BCL2 and EZH2"},
      {"measurement": "dose of maximum knockdown of C-Myc", "setting": "C-Myc oncogene [5]; different doses", "value": 8, "unit": "µM"},
      {"measurement": "decrease in the levels of C-Myc", "setting": "C-Myc oncogene [5]; RT-PCR, 8 μM", "value": "> 50", "unit": "%"},
      {"measurement": "levels of downstream targets MCL1 and EZH2", "setting": "C-Myc oncogene [5]; RT-PCR, 8 μM", "value": "significant decrease in the levels of MCL1 and EZH2"}
    ]},
    {"substance": "X5CCTCCCTTCTTCCTTCTCCCTTGX2 (gamma PNA; NLS peptide; scramble gammaPNA; misc_feature 1 TJJJJJJTJ-linker- is covalently linked to the backbone, wherein J is pseudoisocytosine and the linker is 11-Amino-3,6,9-Trioxaundecanoic Acid (DCHA), represented as -OOO-; misc_feature 23 -K-linker-SEQ ID NO: 5 is covalently linked to the backbone, wherein the linker is 11-Amino-3,6,9-Trioxaundecanoic Acid (DCHA), represented as -OOO-; modified_base 1..23 OTHER; p) [ScrγPNA4-NLS, reference compound]", "values": [
      {"measurement": "viability of U2932 cells", "setting": "U2932 cells [1]", "value": "no impact on the viability"},
      {"measurement": "survival of the mice", "setting": "U2932 derived xenografts", "value": 19.5, "unit": "days"},
      {"measurement": "viability of Raji cells", "setting": "Raji cells", "value": "no impact on the viability"},
      {"measurement": "levels of downstream targets BCL2 and EZH2", "setting": "C-Myc oncogene [4]", "value": "no change in their levels"},
      {"measurement": "knockdown of C-Myc at different doses (in words)", "setting": "C-Myc oncogene [5]; different doses", "value": "no activity"},
      {"measurement": "levels of downstream targets MCL1 and EZH2", "setting": "C-Myc oncogene [5]; RT-PCR, 8 μM", "value": "no change in their levels"}
    ]}
  ]
}
